Measurements: the supplement of paper PMC5908809

How the values were obtained:
[1] = test system: normal NK cells expanded with K562-aAPC; test: percent inhibition of viability; higher = more inhibition; details: 72 h, IL-2 2.5 ng/mL
Description: (§1)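 Drug sensitivity and resistance testing on K562-aAPC-expanded normal NK cells: 5 concentrations (10-fold steps over a 10,000-fold range), 72 h at 37 °C, viability by CellTiter-Glo normalised to DMSO and benzethonium chloride controls; DSS from the fitted curve.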

[2] = test system: normal primary NK cells, pool 3 (3 donors) (IL-2 2.5 ng/mL); test: as above; details: 72 h
[3] = test system: normal primary NK cells, pool 1 (3 donors), resting (IL-2 0 ng/mL); test: as above; details: 72 h
[4] = test system: normal primary NK cells, pool 2 (3 donors) (IL-2 2.5 ng/mL); test: as above; details: 72 h
[5] = test system: SNK-6 (IL-2 2.5 ng/mL); test: as above; details: 72 h
[6] = test system: IMC-1 (IL-2 20 ng/mL); test: as above; details: 72 h
[7] = test system: NK-92 (IL-2 2.5 ng/mL); test: as above; details: 72 h
[8] = test system: NK-YS (IL-2 2.5 ng/mL); test: as above; details: 72 h
[9] = test system: NKL (IL-2 2.5 ng/mL); test: as above; details: 72 h
[10] = test system: normal primary NK cells, pool 1 (3 donors) (IL-2 2.5 ng/mL); test: as above; details: 72 h
[11] = test system: KHYG-1 (IL-2 2.5 ng/mL); test: as above; details: 72 h
[12] = test system: DERL-7 (IL-2 2.5 ng/mL); test: as above; details: 72 h
[13] = test system: KAI3 (IL-2 2.5 ng/mL); test: as above; details: 72 h
[14] = test system: YT (IL-2 2.5 ng/mL); test: as above; details: 72 h
[15] = test system: normal NK cells expanded with K562-aAPC; test: drug sensitivity score (DSS) (DSS units); higher = more sensitive; extreme values may be limits of the assay; details: 72 h; IL-2 2.5 ng/mL
Description: as §1

[16] = test system: normal primary NK cells, pool 3 (3 donors) (IL-2 2.5 ng/mL); test: as above; details: 72 h
[17] = test system: normal primary NK cells, pool 1 (3 donors), resting (IL-2 0 ng/mL); test: as above; details: 72 h
[18] = test system: normal primary NK cells, pool 2 (3 donors) (IL-2 2.5 ng/mL); test: as above; details: 72 h
[19] = test system: SNK-6 (IL-2 2.5 ng/mL); test: as above; details: 72 h
[20] = test system: IMC-1 (IL-2 20 ng/mL); test: as above; details: 72 h
[21] = test system: NK-92 (IL-2 2.5 ng/mL); test: as above; details: 72 h
[22] = test system: NK-YS (IL-2 2.5 ng/mL); test: as above; details: 72 h
[23] = test system: NKL (IL-2 2.5 ng/mL); test: as above; details: 72 h
[24] = test system: normal primary NK cells, pool 1 (3 donors) (IL-2 2.5 ng/mL); test: as above; details: 72 h
[25] = test system: KHYG-1 (IL-2 2.5 ng/mL); test: as above; details: 72 h
[26] = test system: DERL-7 (IL-2 2.5 ng/mL); test: as above; details: 72 h
[27] = test system: KAI3 (IL-2 2.5 ng/mL); test: as above; details: 72 h
[28] = test system: YT (IL-2 2.5 ng/mL); test: as above; details: 72 h

CC[C@@]1(O)C(=O)OCc2c1cc1n(c2=O)Cc2cc3ccccc3nc2-1 [Camptothecin] (max concentration tested 5000 nM)
percent inhibition of viability [%]
Details | 0.5 nM | 5 nM | 50 nM | 500 nM | 5000 nM
[1] | 4.05 | 11.2 | 54.7 | 59.6 | 97.7
[2] | 0.98 | 3.16 | 10.9 | 36.9 | 60.6
[3] | -1.99 | 11.5 | -26.2 | -25.7 | -5.52
[4] | -7.85 | 0.79 | 8.18 | 26.8 | 60.9
[5] | 19.8 | 56.5 | 96.8 | 98 | 99.4
[6] | -1.32 | 4.46 | 99.7 | 100 | 100
[7] | 4.55 | 41.4 | 101 | 102 | 99.6
[8] | 0.45 | 66.1 | 93.3 | 87.5 | 100
[9] | 11.3 | 91.1 | 102 | 98.4 | 92.3
[10] | -11.7 | 2.76 | -4.81 | 19.9 | 41.6
[11] | -0.47 | 50.6 | 101 | 102 | 99.9
[12] | 1 | 20.8 | 97.7 | 92.9 | 100
[13] | 11.5 | 49.2 | 86.9 | 62.4 | 97.2
[14] | -3.33 | 5.46 | 90 | 100 | 99.6

Details | drug sensitivity score
[15] | 19.8
[16] | 8.23
[17] | 0
[18] | 6.31
[19] | 37.5
[20] | 31
[21] | 35.6
[22] | 38.3
[23] | 43.1
[24] | 4.65
[25] | 36.8
[26] | 33.3
[27] | 36.2
[28] | 29.5

COC1=CC(c2cc3ccccc3[nH]2)=N/C1=C\c1[nH]c(C)cc1C [Obatoclax] (max concentration tested 10000 nM)
percent inhibition of viability [%]
Details | 1 nM | 10 nM | 100 nM | 1000 nM | 10000 nM
[1] | 0.42 | 2.59 | 3.2 | 6.46 | 21.2
[2] | -3.41 | -11.5 | 3.42 | 9.76 | 34.5
[3] | -9.87 | -1.78 | -10.3 | 10 | 59
[4] | -4.7 | -5.9 | 5.89 | 6.17 | 37.3
[5] | -0.44 | 6.97 | -8.81 | 6.17 | 16.6
[6] | -4.53 | -1.62 | -0.16 | 4.8 | 18.5
[7] | -5.85 | 7.72 | 16.4 | 50 | 77.5
[8] | -4.05 | -1.77 | 1.63 | 13.8 | 26.2
[9] | -2.53 | -11.6 | 25.5 | 67.5 | 84.2
[10] | -0.48 | 0.81 | -4.45 | 6.95 | 39.1
[11] | -3.69 | -0.55 | 0.4 | 15.8 | 35.2
[12] | -3.53 | -2.23 | 2.25 | 2.35 | 36.5
[13] | 2.78 | 2.46 | -1.6 | 14.8 | 41.8
[14] | 0.99 | 0.48 | 1.63 | 21.2 | 48.1

Details | drug sensitivity score
[15] | 1.2
[16] | 2.91
[17] | 4.87
[18] | 2.84
[19] | 0.94
[20] | 1.04
[21] | 11.6
[22] | 2.34
[23] | 15.6
[24] | 3.07
[25] | 3.67
[26] | 2.1
[27] | 4.2
[28] | 5.06
